Measured values reported in ChEMBL document CHEMBL1201862, “PubChem BioAssay data set” (2004).
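Interpolation was linear, between the two tested concentrations surrounding the appropriate level; five concentrations were tested over 48 hours in 96-well plates. GI50 marks 50% less growth.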 Activity calls are given as the source filed them. No stated cut-off is given here; in the data, active = GI50 up to about 1.1 µM and inactive = higher.

Columns and labels:
Test in all cases: inhibition of tumour cell growth, NCI panel, 48 h
K562 = tested on: K562
PC-3 = tested on: PC-3
SF-539 = tested on: SF-539
HCT-15 = tested on: HCT-15
ACHN = tested on: ACHN
OVCAR-5 = tested on: OVCAR-5
HCC 2998 = tested on: HCC 2998
M14 = tested on: M14
COLO 205 = tested on: COLO 205
SNB-75 = tested on: SNB-75
U-251 = tested on: U-251
UACC-62 = tested on: UACC-62
A498 = tested on: A498
SK-MEL-5 = tested on: SK-MEL-5
BT-549 = tested on: BT-549
RPMI-8226 = tested on: RPMI-8226
NCI-H23 = tested on: NCI-H23
UACC-257 = tested on: UACC-257
RXF 393 = tested on: RXF 393
TK-10 = tested on: TK-10

Row | SMILES | GI50 (K562) | GI50 (PC-3) | GI50 (SF-539) | GI50 (HCT-15) | GI50 (ACHN) | GI50 (OVCAR-5) | GI50 (HCC 2998) | GI50 (M14) | GI50 (COLO 205) | GI50 (SNB-75) | GI50 (U-251) | GI50 (UACC-62) | GI50 (A498) | GI50 (SK-MEL-5) | GI50 (BT-549) | GI50 (RPMI-8226) | GI50 (NCI-H23) | GI50 (UACC-257) | GI50 (RXF 393) | GI50 (TK-10)
1 | COc1ccc2oc(=N)c(C(N)=O)cc2c1 | > 100 µM (inactive) | 37.9 µM (inactive) | 66.5 µM (inactive) | 53.1 µM | 30.3 µM (inactive) | > 100 µM (inactive) | 32.7 µM (inactive) | 87.3 µM (inactive) | 49 µM (inactive) | 30.1 µM (inactive) | > 100 µM (inactive) | 29.8 µM (inactive) | 44.2 µM (inactive) | 60.4 µM (inactive) | 57.7 µM (inactive) | > 100 µM (inactive) | 68.2 µM (inactive) | > 100 µM (inactive) | > 100 µM (inactive) | 
2 | COc1ccc(C(=O)N(C(=S)OCCOc2ccccc2)c2ccccc2)cc1 | 23.8 µM (inactive) | 35.4 µM (inactive) | 40.3 µM (inactive) | 44.2 µM | 44.9 µM (inactive) | 88.3 µM (inactive) | 34.4 µM (inactive) | 43.3 µM (inactive) | 30.5 µM (inactive) | 1.63 µM (inactive) | 46.1 µM (inactive) | 48 µM (inactive) | 18.4 µM (inactive) |  | 49.9 µM (inactive) | 14.6 µM (inactive) | 32.4 µM (inactive) | 34.8 µM (inactive) | 26.5 µM (inactive) | 61 µM (inactive)
3 | COC(=O)C1=C(C)NC(CF)=C(C(=O)OC)C1c1cccc2c(=O)c3ccccc3oc12 (stereo not drawn) | 4.06 µM (inactive) | 2.69 µM (inactive) | 24.3 µM (inactive) | 4.79 µM | 15.1 µM (inactive) | > 100 µM (inactive) | 6.59 µM (inactive) |  | 4.39 µM (inactive) | 8.41 µM (inactive) |  | 10.6 µM (inactive) | 5.53 µM (inactive) | 5.06 µM (inactive) | 15.8 µM (inactive) | 69.3 µM (inactive) | 36.8 µM (inactive) | 16.5 µM (inactive) | 11.7 µM (inactive) | 35.8 µM (inactive)
4 | O=c1n(-c2ccccc2)c(=O)n2c(-c3ccccc3)c(-c3ccccc3)n12 | 80.9 µM (inactive) | 77.8 µM (inactive) | > 100 µM (inactive) | 82.4 µM | > 100 µM (inactive) | > 100 µM (inactive) | 77.8 µM (inactive) | 52.1 µM (inactive) | 91.6 µM (inactive) | 76.9 µM (inactive) | > 100 µM (inactive) | > 100 µM (inactive) | > 100 µM (inactive) | > 100 µM (inactive) | > 100 µM (inactive) |  | > 100 µM (inactive) | > 100 µM (inactive) | 15.9 µM (inactive) | > 100 µM (inactive)
5 | O=[N+]([O-])C(=C(N1CCCCC1)N1CCCCC1)/C(Cl)=C(\Cl)Br | 18.3 µM (inactive) | 22.9 µM (inactive) | 24.4 µM (inactive) | 16.4 µM | 24.9 µM (inactive) |  | 17.5 µM (inactive) | 20.6 µM (inactive) | 20.3 µM (inactive) | 16.6 µM (inactive) | 18.7 µM (inactive) | 10.7 µM (inactive) | 21.5 µM (inactive) | 21 µM (inactive) | 33.8 µM (inactive) | 17.1 µM (inactive) | 18.7 µM (inactive) | 23.8 µM (inactive) | 20.5 µM (inactive) | 25.5 µM (inactive)
6 | O=C(O)C1=C/C(=C(/c2ccccc2)c2cc(C(=O)O)c(O)c3ccccc23)c2ccccc2C1=O | > 100 µM (inactive) | > 100 µM (inactive) | > 100 µM (inactive) | > 100 µM | > 100 µM (inactive) | > 100 µM (inactive) | > 100 µM (inactive) | > 100 µM (inactive) | > 100 µM (inactive) | > 100 µM (inactive) | > 100 µM (inactive) | > 100 µM (inactive) | > 100 µM (inactive) | > 100 µM (inactive) | > 100 µM (inactive) | > 100 µM (inactive) | > 100 µM (inactive) | > 100 µM (inactive) | > 100 µM (inactive) | > 100 µM (inactive)
7 | C[Si](C)(OCCS(=O)(=O)O)OC(=C1S(=O)(=O)OCCOS1(=O)=O)c1cccc2ccccc12 | 84.5 µM (inactive) | > 100 µM (inactive) | > 100 µM (inactive) | > 100 µM | > 100 µM (inactive) | > 100 µM (inactive) | 90.6 µM (inactive) | > 100 µM (inactive) | > 100 µM (inactive) | > 100 µM (inactive) | > 100 µM (inactive) |  | 98.4 µM (inactive) | > 100 µM (inactive) | > 100 µM (inactive) | > 100 µM (inactive) | > 100 µM (inactive) | > 100 µM (inactive) | 37.2 µM (inactive) | > 100 µM (inactive)
